Assay results taken from patent US9006437B2, “Xanthene dyes comprising a sulfonamide group” (Biotium, Inc., priority 2009, dated 2015).

Assay: Absorption/emission maxima of dyes in pH 7.4 PBS
Type: physicochemical

SMILES | λabs (nm) (in pH 7.4 PBS) | λem (nm) (in pH 7.4 PBS)
N=c1ccc2c(-c3ccccc3C(=O)O)c3ccc(N)cc3oc-2c1S(=O)(=O)NCCCCCC(=O)ON1C(=O)CCC1=O [Compound No. 9] | 529/ nm | –
N=c1ccc2c(-c3ccccc3C(=O)O)c3ccc(N)c(S(=O)(=O)NCCCCCC(=O)ON4C(=O)CCC4=O)c3oc-2c1 [compound 1] | 488 nm | 516 nm
N=c1ccc2c(-c3ccccc3C(=O)O)c3ccc(N)c(S(=O)(=O)NCCOCCOCCOCCOCCOCCOCCOCCN)c3oc-2c1S(=O)(=O)O [compound 3] | 488 nm | 516 nm
N=c1ccc2c(-c3ccccc3C(=O)O)c3ccc(N)c(S(=O)(=O)NCCOCCOCCOCCOCCOCCOCCOCCOCCC(=O)ON4C(=O)CCC4=O)c3oc-2c1S(=O)(=O)O [compound 4] | 488 nm | 516 nm
COCCOCCNC(=O)c1ccc(-c2c3ccc(=N)c(S(=O)(=O)O)c-3oc3c(S(=O)(=O)NCCOCCOCCOCCOCCC(=O)ON4C(=O)CCC4=O)c(N)ccc23)c(C(=O)O)c1 [compound 5] | 488 nm | 516 nm
